According to patent US7160733B2, “Ligand specific to β2-glycoprotein I and use thereof” (priority 2001, dated 2007):
Each block holds one molecule with its values, some of them ahead of it.

Assays:
β2-GPI [1] = biological target: T1, β2-GPI (Homo sapiens, UniProt P02749); assay: ELISA on solid-phase lipid (ligand)-coated plate: β2-GPI binding detected with Cof-22; conditions: for β2-GPI binding to lipid: result in words (discussion); for β2-GPI binding (Cof-22 binding), No treatment: absorbance at 490 nm, mean ± SD (n = 3), solid-phase ligand not methylated
T1 construct: β2-GPI was purified from normal human plasma as described in [35] with slight modification; from tissue; host or cells: pooled normal human plasma from healthy subjects
T1 sequence (P02749 20-345): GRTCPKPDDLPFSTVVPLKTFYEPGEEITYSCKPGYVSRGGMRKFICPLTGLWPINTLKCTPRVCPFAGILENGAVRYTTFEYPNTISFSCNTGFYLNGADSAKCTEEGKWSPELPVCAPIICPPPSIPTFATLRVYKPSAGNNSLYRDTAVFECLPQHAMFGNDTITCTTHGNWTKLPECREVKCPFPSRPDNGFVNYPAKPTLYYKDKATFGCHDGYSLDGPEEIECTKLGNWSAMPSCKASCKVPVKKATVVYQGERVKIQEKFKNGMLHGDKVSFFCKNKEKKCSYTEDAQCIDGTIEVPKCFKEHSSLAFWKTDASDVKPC
Experimental: (§1) Binding to extracted lipids: A microtiter plate (Immulon 1B, Dynex Technologies Inc.) was coated with lipids extracted from LDLs (50 μg/mL, 50 μL/well) by ethanol evaporation. The wells were blocked with PBS containing 1% BSA for one hour and the wells were incubated with 30 μg/mL of β2-GPI for one hour. Then, β2-GPI binding was detected using Cof-22 and HRP-labeled anti-mouse IgG antibodies. Alternatively, an anti-β2-GPI autoantibody (Cof-22, WB-CAL-1, or EY2C9) was diluted with a 0.3% BSA-containing PBS, and the diluted antibody was added to the coated plate (1.0 μg/mL, 100 μL/well) and incubated with β2-GPI (15 μg/mL) for one hour. The binding of the antibody was detected by an HRP-labeled anti-mouse IgG /or an anti-human IgM. The color was developed with H2O2 and o-phenylenediamine, and OD was measured at 490 nm. Between these steps, extensive washing were done using PBS containing 0.05% Tween 20.
(§2) Synthesized oxLig-1 (50 μg/mL, 50 μL/well) was adsorbed by evaporation on a polystyrene plate (Immulon 1B; Dynex Technologies Inc.), and the plate was then blocked with 1% BSA. Serum samples (diluted 1:100 with PBS containing 0.3% BSA) were incubated in the wells with β2-GPI (15 μg/mL) or other proteins for one hour at room temperature. Antibody binding was detected with HRP-labeled anti-human IgG. Further steps were performed through a method as described in “anti-β2-GPI ELISA.”
(§3) CL (50 μg/mL, 50 μL/well) was adsorbed on a polystyrene plate (Immulon 1B), and further steps were performed through a method as described in “ELISA for antibodies against a protein-oxLig-1 complex.”

anti-β2-GPI antibodies = assay: ELISA of the anti-β2-GPI antibodies by use of a ligand-coated plate (results in words); type: binding; conditions: result in words; for binding of the anti-β2-GPI autoantibodies (WB-CAL-1 and EY2C9) to solid-phase ligand: ligand-coated plate
Experimental: as §1, §2

J774A.1 cells = assay: Liposome binding to macrophages (3H-labeled liposomes, 4° C.); type: cell-based, murine; conditions: result in words; for direct binding of liposomes to macrophages: J774A.1 cells, 2 hours at 4° C., 50 nmol lipid/well, without β2-GPI and antibody; for binding of liposomes to macrophages after methylation of the ligand: liposomes containing methylated ligand, with β2-GPI and WB-CAL-1, FIGS. 20C and 20D; for uptake of ligand-containing liposomes to J774A.1 cells in the presence of both β2-GPI and WB-CAL-1: compared with cholesteryl linoleate-liposomes (control), FIG. 20
Experimental: FIG. 10. Effect of phosphatidylserine (PS) or oxLig-1 content on the binding of liposomes to macrophages. A monolayer of J774.A1 cells was incubated for 2 hours at 4° C. with Celgrosser-P medium containing ^3H-labeled liposomes (50 nmol lipid/well). Open circle represents PS-liposomes; closed circle represents PS-Chol-liposomes; open square represents oxLig-1-liposomes; and closed square represents oxLig-1-Chol-liposomes. Data are indicated as the mean± SD of triplicate samples.
FIG. 11. β2-GPI and anti-β2-GPI monoclonal antibody-dependent binding of ligand-containing liposomes to macrophage. A monolayer of J774.A1 cells was incubated for 2 hours at 4° C. with Celgrosser-P medium containing ^3H-labeled liposomes (50 nmol lipid/well) and WB-CAL-1, in the presence or absence of β2-GPI (200 μg/ml). • A: Binding of PS-liposomes (PS: 50 mol %,) to J774.A1. cells in the presence (closed square) or absence (open square) of β2-GPI (200 μg/ml) • B: Binding of oxLig-1-liposomes (oxLig-1: 40 mol %) to J774.A1 cells in the presence (black bar) or absence (white bar) of β2-GPI (200 μg/ml). • C: A monolayer of J774.A1 cells was incubated for 2 hours at 4° C. with Celgrosser-P medium containing ^3H-labeled synthesized oxLig-1-liposomes (50 nmol lipid/well) and WB-CAL-1, in the presence or absence of β2-GPI (200 μg/ml). Binding of synthesized oxLig-1-liposomes in the absence of β2-GPI and WB-CAL-1 (open circle), binding of synthesized oxLig-1-liposomes in the presence of β2-GPI (open square), binding of synthesized oxLig-1-liposomes in the presence of WB-CAL-1 (closed square), and binding of synthesized oxLig-1-liposomes in the presence of both β2-GPI and WB-CAL-1 (closed circle). Data are indicated as the mean ± SD of triplicate samples.
A monolayer of J774.A1 cells was incubated for 2 hours at 4° C. with Celgrosser-P medium containing [^3H]-labeled liposomes (containing a predetermined ligand, 50 nmol lipid/well). DPPS-containing liposomes (open squares), oxLig-1-containing liposomes (closed squares), oxLig-2-containing liposomes (closed circles), and 13-COOH-7KC-containing liposomes (closed triangles). Data are indicated as mean± SD of triplicate samples.
A monolayer of J774.A1 cells was incubated for 2 hours at 4° C. with Celgrosser-P medium containing [^3H]-labeled liposomes (containing a predetermined ligand (30 mmol %), 50 nmol lipid/well) and in the presence (black bars) or absence (white bars) of β2-GPI (200 μg/mL) and WB-CAL-1 ([…]).
A monolayer culture of murine macrophage-like cells (J774A.1) obtained from Riken Cell Bank (Tsukuba) was maintained in RPMI 1640 medium supplemented with 10% fetal carf serum (FCS). For binding experiments, the cells (8×10^5 cells/mL, RPMI1640) were dispensed in an amount of 1 mL/well into a 12-well culture plate (Sumitomo Bakelite Co., Ltd.) and were incubated for 24 hours at 37° C., then the culture broth was replaced with Celgrosser-P medium (Sumitomo Pharmaceutical Co.). After one hour of preincubation at 37° C., 50 μL of liposomes (50 nmol lipid/well) with or without β2-GPI (200 μg/mL) and WB-CAL-1 (100 μg/mL) were added to each culture, and the cells were incubated at 4° C. and/or 37° C. The wells were next washed with chilled PBS, and the cells were lysed by adding 1 mL of 0.1N NaOH. An aliquot was taken for determination of cellular proteins and of radioactivity associated with the cells. Protein concentration was determined in a manner as described above.

WB-CAL-1 = assay: ELISA on solid-phase lipid (ligand)-coated plate: WB-CAL-1 binding in presence of β2-GPI; set-up: species or system mouse; conditions: for WB-CAL-1 binding, No treatment: absorbance at 490 nm, mean ± SD (n = 3), solid-phase ligand not methylated
Experimental: as §1, §2, §3

EY2C9 = assay: ELISA on solid-phase lipid (ligand)-coated plate: EY2C9 binding in presence of β2-GPI; set-up: species or system human; conditions: for EY2C9 binding, No treatment: absorbance at 490 nm, mean ± SD (n = 3), solid-phase ligand not methylated
Experimental: as §1, §2, §3

APS-1 = assay: ELISA on solid-phase lipid-coated plate: binding of antibodies of APS patient serum APS-1; set-up: species or system human; conditions: Absorbance, mean ± SD, n = 3
Experimental: (§4) To eliminate endogenous β2-GPI in some experiments, serum samples were passed through a heparin-Sepharose column. The effluent was dialyzed against PBS and was used for ELISAs.
as §2, §3

APS-2 = assay: ELISA on solid-phase lipid-coated plate: binding of antibodies of APS patient serum APS-2; set-up: species or system human; conditions: Absorbance, mean ± SD, n = 3
Experimental: as §4, §2, §3

β2-GPI [2] = assay: ELISA on solid-phase lipid (ligand)-coated plate: β2-GPI binding detected with Cof-22; set-up: species or system human; conditions: Experiment 2; Absorbance, mean ± SD, n = 3; synthesized oxLig-1-solidified plate, added protein 15 μg/mL
Experimental: as §1, §2, §3

[3] = Experiment 1, Absorbance, mean ± SD, n = 3, solid-phase lipid, β2-GPI 15 μg/mL
[4] = Experiment 1, solid-phase lipid, β2-GPI 15 μg/mL, serum with β2-GPI removed
[5] = Experiment 2, Absorbance, mean ± SD, n = 3, synthesized oxLig-1-solidified plate, added protein 15 μg/mL
[6] = Experiment 2, synthesized oxLig-1-solidified plate, added protein 15 μg/mL

Molecule: CC(C)CCC[C@@H](C)[C@H]1CC[C@H]2[C@@H]3C(=O)C=C4C[C@@H](O)CC[C@]4(C)[C@H]3CC[C@]12C [7-ketocholesterol, 5-cholesten-3β-ol-7-one, reference compound]
- β2-GPI binding to lipid (β2-GPI [1]): did not bind
- binding of the three antibodies (WB-CAL-1, EY2C9, mouse monoclonal anti-β2-GPI antibody) to immobilized lipid (anti-β2-GPI antibodies): did not bind

Molecule: CC(C)CCC[C@@H](C)[C@H]1CC[C@H]2[C@@H]3C(=O)C=C4C[C@@H](OC(=O)CCCCCCCCCCCC(=O)O)CC[C@]4(C)[C@H]3CC[C@]12C [13-COOH-7KC, 13-oxo-13-(7-ketocholest-5-en-3β-yloxy)tridecanoic acid]
- direct binding of liposomes to macrophages (J774A.1 cells): relatively low or negligible small
- binding of liposomes to macrophages after methylation of the ligand (J774A.1 cells): substantially no binding
- uptake of ligand-containing liposomes to J774A.1 cells in the presence of both β2-GPI and WB-CAL-1 (J774A.1 cells): significantly enhanced
- WB-CAL-1 binding, No treatment (WB-CAL-1): 0.336 +/− 0.027
- β2-GPI binding (Cof-22 binding), No treatment (β2-GPI [1]): 1.303 +/− 0.049
- β2-GPI binding to lipid (β2-GPI [1]): significant bonding
- binding of the anti-β2-GPI autoantibodies (WB-CAL-1 and EY2C9) to solid-phase ligand (anti-β2-GPI antibodies): significant binding
- EY2C9 binding, No treatment (EY2C9): 1.062 +/− 0.040

- WB-CAL-1 binding, No treatment (WB-CAL-1): 0.056 +/− 0.002
- β2-GPI binding (Cof-22 binding), No treatment (β2-GPI [1]): 0.061 +/− 0.005
- β2-GPI binding to lipid (β2-GPI [1]): did not bind
- binding of the anti-β2-GPI autoantibodies (WB-CAL-1 and EY2C9) to solid-phase ligand (anti-β2-GPI antibodies): no such binding was observed
- EY2C9 binding, No treatment (EY2C9): 0.074 +/− 0.012
Molecule: CCCCC/C=C\C/C=C\CCCCCCCC(=O)O[C@H]1CC[C@@]2(C)C(=CC[C@H]3[C@@H]4CC[C@H]([C@H](C)CCCC(C)C)[C@@]4(C)CC[C@@H]32)C1 [Cholesteryl linoleate, reference compound]

Molecule: CCCCC/C=C\C/C=C\C/C=C\C/C=C\CCCC(=O)O[C@H](COC(=O)CCCCCCCCCCCCCCC)COP(=O)([O-])OCC[N+](C)(C)C [PAPC, 1-Palmitoyl-2-arachidonoyl-phosphatidylcholine, reference compound]
- Binding of β2-GPI-dependent aCL, WB-CAL-1 (WB-CAL-1; [3]): 0.012 ± 0.001
- Binding of β2-GPI-dependent aCL, Cof-22 (β2-GPI [1]; [3]): 0.019 ± 0.003
- Binding of β2-GPI-dependent aCL, APS-1 (APS-1; [4]): 0.000 ± 0.001
- Binding of β2-GPI-dependent aCL, APS-2 (APS-2; [4]): 0.010 ± 0.002
- Binding of β2-GPI-dependent aCL, EY2C9 (EY2C9; [3]): 0.011 ± 0.003

- β2-GPI binding to lipid (β2-GPI [1]): did not bind
- binding of the three antibodies (WB-CAL-1, EY2C9, mouse monoclonal anti-β2-GPI antibody) to immobilized lipid (anti-β2-GPI antibodies): did not bind
Molecule: CC(C)CCC[C@@H](C)[C@H]1CC[C@H]2[C@@H]3CC=C4C[C@@H](O)CC[C@]4(C)[C@H]3CC[C@]12C [cholesterol, Cholesterol, reference compound]

Molecule: CC(C)CCC[C@@H](C)[C@H]1CC[C@H]2[C@@H]3C(=O)C=C4C[C@@H](OC(=O)CCCCCCCC(=O)CCC(=O)O)CC[C@]4(C)[C@H]3CC[C@]12C [oxLig-2, 4,12-dioxo-12-(7-ketocholest-5-en-3β-yloxy)dodecanoic acid]
- direct binding of liposomes to macrophages (J774A.1 cells): relatively low or negligible small
- binding of liposomes to macrophages after methylation of the ligand (J774A.1 cells): substantially no binding
- uptake of ligand-containing liposomes to J774A.1 cells in the presence of both β2-GPI and WB-CAL-1 (J774A.1 cells): significantly enhanced
- WB-CAL-1 binding, No treatment (WB-CAL-1): 0.518 +/− 0.023
- β2-GPI binding (Cof-22 binding), No treatment (β2-GPI [1]): 1.002 +/− 0.084
- β2-GPI binding to lipid (β2-GPI [1]): significant bonding
- binding of the anti-β2-GPI autoantibodies (WB-CAL-1 and EY2C9) to solid-phase ligand (anti-β2-GPI antibodies): significant binding
- EY2C9 binding, No treatment (EY2C9): 1.018 +/− 0.121

- Binding of protein-dependent oxLig-1 antibody, WB-CAL-1 (WB-CAL-1; [5]): 0.812 ± 0.023
- Binding of protein-dependent oxLig-1 antibody, Cof-22 (β2-GPI [2]): 1.007 ± 0.031
- Binding of protein-dependent oxLig-1 antibody, APS-1 (APS-1; [6]): 1.043 ± 0.054
- Binding of protein-dependent oxLig-1 antibody, APS-2 (APS-2; [6]): 0.755 ± 0.024
- Binding of protein-dependent oxLig-1 antibody, EY2C9 (EY2C9; [5]): 1.147 ± 0.028
B1: β2-GPI: β2-Glycoprotein I purified from normal human plasma (protein, UniProt P02749 20-345, looked up)
Beta-2-glycoprotein 1: T1 sequence (P02749 20-345)
